Key:
Assay in all cases: normalized area under the dose-response curve (viability relative to DMSO control) (fraction); higher = less sensitive (more viable cells)
Conditions in all cases: exposure time not given
KMS18 (cancer type: MM) = test system: KMS18 (cancer type: MM)
Experimental: (§1)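 25 myeloma and 15 non-Hodgkin lymphoma cell lines were exposed to each of 76 drugs as 7-point log dilutions (0.01 nM–10 µM) in duplicate. Viability was read with CellTiter-Glo and normalised to DMSO (0.1%) and staurosporine (10 µM) plate controls. Normalised AUC was calculated by the trapezoidal method relative to the negative control.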

[1] = test system: OCI-MY7 (cancer type: MM)
Experimental: as §1

AMO1 (cancer type: MM) = test system: AMO1 (cancer type: MM)
Experimental: as §1

[2] = test system: NCI-H929 (cancer type: MM)
Experimental: as §1

KMS34 (cancer type: MM) = test system: KMS34 (cancer type: MM)
Experimental: as §1

[3] = test system: OCI-LY1 (cancer type: DLBCL)
Experimental: as §1

Se-Ax (cancer type: TCL) = test system: Se-Ax (cancer type: TCL)
Experimental: as §1

[4] = test system: SR-786 (cancer type: TCL)
Experimental: as §1

[5] = test system: Granta-519 (cancer type: Mantle)
Experimental: as §1

[6] = test system: JVM2 (cancer type: Mantle)
Experimental: as §1

My-La (cancer type: TCL) = test system: My-La (cancer type: TCL)
Experimental: as §1

[7] = test system: OCI-MY5/Vec (cancer type: MM)
Experimental: as §1

[8] = test system: OCI-LY19 (cancer type: DLBCL)
Experimental: as §1

[9] = test system: OCI-MY5 (cancer type: MM)
Experimental: as §1

OPM2 (cancer type: MM) = test system: OPM2 (cancer type: MM)
Experimental: as §1

XG2 (cancer type: MM) = test system: XG2 (cancer type: MM)
Experimental: as §1

[10] = test system: KMS28BM (cancer type: MM)
Experimental: as §1

L363 (cancer type: MM) = test system: L363 (cancer type: MM)
Experimental: as §1

KMS26 (cancer type: MM) = test system: KMS26 (cancer type: MM)
Experimental: as §1

KMS11 (cancer type: MM) = test system: KMS11 (cancer type: MM)
Experimental: as §1

[11] = test system: HuT 78 (cancer type: TCL)
Experimental: as §1

[12] = test system: Mino (cancer type: Mantle)
Experimental: as §1

[13] = test system: OCI-MY5/CRBN (cancer type: MM)
Experimental: as §1

[14] = test system: KMS28PE (cancer type: MM)
Experimental: as §1

JJN3 (cancer type: MM) = test system: JJN3 (cancer type: MM)
Experimental: as §1

U266 (cancer type: MM) = test system: U266 (cancer type: MM)
Experimental: as §1

LP1 (cancer type: MM) = test system: LP1 (cancer type: MM)
Experimental: as §1

EJM (cancer type: MM) = test system: EJM (cancer type: MM)
Experimental: as §1

[15] = test system: KMS12PE (cancer type: MM)
Experimental: as §1

MM1.R (cancer type: MM) = test system: MM1.R (cancer type: MM)
Experimental: as §1

MM1.S (cancer type: MM) = test system: MM1.S (cancer type: MM)
Experimental: as §1

[16] = test system: JeKo-1 (cancer type: Mantle)
Experimental: as §1

[17] = test system: SU-DHL1 (cancer type: TCL)
Experimental: as §1

[18] = test system: RPMI 8226 (cancer type: MM)
Experimental: as §1

FR4 (cancer type: MM) = test system: FR4 (cancer type: MM)
Experimental: as §1

[19] = test system: SU-DHL2 (cancer type: DLBCL)
Experimental: as §1

[20] = test system: OCI-LY3 (cancer type: DLBCL)
Experimental: as §1

[21] = test system: Karpas-299 (cancer type: TCL)
Experimental: as §1

[22] = test system: SU-DHL6 (cancer type: DLBCL)
Experimental: as §1

SKMM2 (cancer type: MM) = test system: SKMM2 (cancer type: MM)
Experimental: as §1

| SMILES | normalized area under the dose-response curve (KMS18 (cancer type: MM)) | normalized area under the dose-response curve [1] | normalized area under the dose-response curve (AMO1 (cancer type: MM)) | normalized area under the dose-response curve [2] | normalized area under the dose-response curve (KMS34 (cancer type: MM)) | normalized area under the dose-response curve [3] | normalized area under the dose-response curve (Se-Ax (cancer type: TCL)) | normalized area under the dose-response curve [4] | normalized area under the dose-response curve [5] | normalized area under the dose-response curve [6] | normalized area under the dose-response curve (My-La (cancer type: TCL)) | normalized area under the dose-response curve [7] | normalized area under the dose-response curve [8] | normalized area under the dose-response curve [9] | normalized area under the dose-response curve (OPM2 (cancer type: MM)) | normalized area under the dose-response curve (XG2 (cancer type: MM)) | normalized area under the dose-response curve [10] | normalized area under the dose-response curve (L363 (cancer type: MM)) | normalized area under the dose-response curve (KMS26 (cancer type: MM)) | normalized area under the dose-response curve (KMS11 (cancer type: MM)) | normalized area under the dose-response curve [11] | normalized area under the dose-response curve [12] | normalized area under the dose-response curve [13] | normalized area under the dose-response curve [14] | normalized area under the dose-response curve (JJN3 (cancer type: MM)) | normalized area under the dose-response curve (U266 (cancer type: MM)) | normalized area under the dose-response curve (LP1 (cancer type: MM)) | normalized area under the dose-response curve (EJM (cancer type: MM)) | normalized area under the dose-response curve [15] | normalized area under the dose-response curve (MM1.R (cancer type: MM)) | normalized area under the dose-response curve (MM1.S (cancer type: MM)) | normalized area under the dose-response curve [16] | normalized area under the dose-response curve [17] | normalized area under the dose-response curve [18] | normalized area under the dose-response curve (FR4 (cancer type: MM)) | normalized area under the dose-response curve [19] | normalized area under the dose-response curve [20] | normalized area under the dose-response curve [21] | normalized area under the dose-response curve [22] | normalized area under the dose-response curve (SKMM2 (cancer type: MM)) |
| --- | --- | --- | --- | --- | --- | --- | --- | --- | --- | --- | --- | --- | --- | --- | --- | --- | --- | --- | --- | --- | --- | --- | --- | --- | --- | --- | --- | --- | --- | --- | --- | --- | --- | --- | --- | --- | --- | --- | --- | --- |
| COc1nc(N)nc2c1ncn2[C@@H]1O[C@H](CO)[C@@H](O)[C@@H]1O [Nelarabine] | 0.973 | 0.94 | 0.948 | 0.95 | 0.88 | 0.996 | 0.779 | 0.902 | 0.99 | 0.883 | 0.929 | 0.946 | 0.993 | 0.98 | 0.978 | 0.935 | 0.924 | 0.92 | 0.861 | 0.992 | 0.913 | 0.978 | 0.928 | 0.951 | 0.987 | 0.985 | 0.94 | 0.889 | 0.92 | 0.85 | 0.91 | 0.921 | 0.858 | 0.915 | 1.01 | 0.937 | 1.01 | 0.972 | 0.989 | 0.96 |
| Nc1ncn([C@@H]2O[C@H](CO)[C@@H](O)[C@H]2O)c(=O)n1 [Azacitidine] | 0.736 | 0.6 | 0.496 | 0.4 | 0.64 | 0.508 | 0.637 | 0.74 | 0.778 | 0.552 | 0.87 | 0.702 | 0.716 | 0.564 | 0.535 | 0.612 | 0.774 | 0.488 | 0.757 | 0.545 | 0.419 | 0.807 | 0.756 | 0.678 | 0.645 | 0.679 | 0.766 | 0.635 | 0.56 | 0.65 | 0.6 | 0.72 | 0.453 | 0.665 | 0.427 | 0.673 | 0.707 | 0.624 | 0.65 | 0.767 |
